Reference: PubChem BioAssay AID2060894 (Molecular Pharmacology Branch, DTP, NCI, 2025)

System: K12877-001-R-J1-PDC complex spheroid viability
Test: Anticancer human tumor K12877-001-R-J1-PDC patient-derived lung adenocarcinoma cell line growth inhibition [RAS]
Settings: for IC50: curve of first compound; for viability, T/C: stronger effect = lower value
How it was run: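 Tumour cells grown as complex spheroids with HUVEC endothelial cells and mesenchymal stem cells, treated with RAS pathway inhibitor combinations. Each agent spans half-log steps from near clinical Cmax, or 10 microM where Cmax is unknown.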
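Note: spheroids exposed to agents for one week before readout.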
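Throughout, for viability, T/C: tumour cells co-cultured with HUVEC and mesenchymal stem cells in spheroids.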

## CC(Nc1ccc2c(c1)OCCn1cc(N3C(=O)OCC3C(F)F)nc1-2)C(N)=O (configuration not stated) + CCn1c(-c2cccnc2C(C)OC)c2c3cc(ccc31)N1CCOC(CC(NC(=O)C(C(C)C)N(C)C(=O)C3(F)CCN(C(=O)C#CC(C)(C)N(C)C)CC3)C(=O)N3CCCC(N3)C(=O)OCC(C)(C)C2)C1
Second compound 0.000949 µM
  IC50: 931 nM
Second compound 0.003 µM
  IC50: 472 nM
Second compound 0.00949 µM
  IC50: 312 nM
Second compound 0.03 µM
  IC50: 571 nM
Second compound 0.0949 µM
  IC50: 172 nM
Second compound 0.3 µM
  IC50: 81.7 nM
Second compound 0.000949 µM, first compound 0.0316 µM
  viability, T/C: 73.5%
Second compound 0.000949 µM, first compound 0.1 µM
  viability, T/C: 69.8%
Second compound 0.000949 µM, first compound 0.316 µM
  viability, T/C: 55.3%
Second compound 0.000949 µM, first compound 1 µM
  viability, T/C: 51.5%
Second compound 0.000949 µM, first compound 3.16 µM
  viability, T/C: 37.5%
Second compound 0.000949 µM, first compound 10 µM
  viability, T/C: 19.3%
Second compound 0.003 µM, first compound 0.0316 µM
  viability, T/C: 74.8%
Second compound 0.003 µM, first compound 0.1 µM
  viability, T/C: 66.8%
Second compound 0.003 µM, first compound 0.316 µM
  viability, T/C: 48%
Second compound 0.003 µM, first compound 1 µM
  viability, T/C: 40.3%
Second compound 0.003 µM, first compound 3.16 µM
  viability, T/C: 44%
Second compound 0.003 µM, first compound 10 µM
  viability, T/C: 19.2%
Second compound 0.00949 µM, first compound 0.0316 µM
  viability, T/C: 76.6%
Second compound 0.00949 µM, first compound 0.1 µM
  viability, T/C: 53.7%
Second compound 0.00949 µM, first compound 0.316 µM
  viability, T/C: 50.7%
Second compound 0.00949 µM, first compound 1 µM
  viability, T/C: 43.6%
Second compound 0.00949 µM, first compound 3.16 µM
  viability, T/C: 34%
Second compound 0.00949 µM, first compound 10 µM
  viability, T/C: 22.3%
Second compound 0.03 µM, first compound 0.0316 µM
  viability, T/C: 65.8%
Second compound 0.03 µM, first compound 0.1 µM
  viability, T/C: 62.9%
Second compound 0.03 µM, first compound 0.316 µM
  viability, T/C: 55.2%
Second compound 0.03 µM, first compound 1 µM
  viability, T/C: 44.8%
Second compound 0.03 µM, first compound 3.16 µM
  viability, T/C: 30.5%
Second compound 0.03 µM, first compound 10 µM
  viability, T/C: 16.1%
Second compound 0.0949 µM, first compound 0.0316 µM
  viability, T/C: 66.8%
Second compound 0.0949 µM, first compound 0.1 µM
  viability, T/C: 52%
Second compound 0.0949 µM, first compound 0.316 µM
  viability, T/C: 44.6%
Second compound 0.0949 µM, first compound 1 µM
  viability, T/C: 34.4%
Second compound 0.0949 µM, first compound 3.16 µM
  viability, T/C: 28%
Second compound 0.0949 µM, first compound 10 µM
  viability, T/C: 13.4%
Second compound 0.3 µM, first compound 0.0316 µM
  viability, T/C: 65.5%
Second compound 0.3 µM, first compound 0.1 µM
  viability, T/C: 41.2%
Second compound 0.3 µM, first compound 0.316 µM
  viability, T/C: 35.7%
Second compound 0.3 µM, first compound 1 µM
  viability, T/C: 28.1%
Second compound 0.3 µM, first compound 3.16 µM
  viability, T/C: 21.8%
Second compound 0.3 µM, first compound 10 µM
  viability, T/C: 8.8%
